Reference: PubChem BioAssay AID1745844 (Carcinogenic Potency Database (CPDB), 2022)
Calls of active or inactive are those of the source. The rule behind the calls is not given here.

Test system: rodent lifetime carcinogenesis bioassay, tumor incidence TD50
Experiment: carcinogenic potency in animals, long-term in vivo studies, CPDB compilation (AID 1745844)

## CCCCOC(=O)COc1ccc(Cl)cc1Cl
mouse, strain B6AKF1, females, oral dosing, site: any site (literature study), lesion: several types, types named in the paper, dosed 76 weeks, study length 76 weeks
  carcinogen call: negative (inactive)
mouse, strain B6AKF1, females, oral dosing, site: liver, lesion: hepatoma, dosed 76 weeks, study length 76 weeks
  carcinogen call: negative (inactive)
mouse, strain B6AKF1, females, oral dosing, site: lung, lesion: adenoma, dosed 76 weeks, study length 76 weeks
  carcinogen call: negative (inactive)
mouse, strain B6AKF1, males, oral dosing, site: any site (literature study), lesion: several types, types named in the paper, dosed 76 weeks, study length 76 weeks
  carcinogen call: negative (inactive)
mouse, strain B6AKF1, males, oral dosing, site: liver, lesion: hepatoma, dosed 76 weeks, study length 76 weeks
  carcinogen call: negative (inactive)
mouse, strain B6AKF1, males, oral dosing, site: lung, lesion: adenoma, dosed 76 weeks, study length 76 weeks
  carcinogen call: negative (inactive)
mouse, strain B6C3F1, females, oral dosing, site: any site (literature study), lesion: several types, types named in the paper, dosed 76 weeks, study length 76 weeks
  TD50: 29.7 mg/kg/day (inactive)
mouse, strain B6C3F1, females, oral dosing, site: liver, lesion: hepatoma, dosed 76 weeks, study length 76 weeks
  carcinogen call: negative (inactive)
mouse, strain B6C3F1, females, oral dosing, site: lung, lesion: several types, types named in the paper, dosed 76 weeks, study length 76 weeks
  carcinogen call: negative (inactive)
mouse, strain B6C3F1, males, oral dosing, site: any site (literature study), lesion: several types, types named in the paper, dosed 76 weeks, study length 76 weeks
  TD50: 38.1 mg/kg/day (inactive)
mouse, strain B6C3F1, males, oral dosing, site: liver, lesion: hepatoma, dosed 76 weeks, study length 76 weeks
  TD50: 122 mg/kg/day (inactive)
mouse, strain B6C3F1, males, oral dosing, site: lung, lesion: adenoma, dosed 76 weeks, study length 76 weeks
  TD50: 59 mg/kg/day (inactive)

## CCCOC(=O)c1cc(O)c(O)c(O)c1
mouse, strain B6C3F1, females, in feed, site: liver, lesion: hepatocellular adenoma + hepatocellular carcinoma + neoplastic nodule, dosed 103 weeks, study length 105 weeks
  TD50: 21400 mg/kg/day
mouse, strain B6C3F1, females, in feed, site: liver, lesion: hepatocellular adenoma, dosed 103 weeks, study length 105 weeks
  TD50: 8260 mg/kg/day (inactive)
mouse, strain B6C3F1, females, in feed, site: lung, lesion: alveolar/bronchiolar adenoma + alveolar/bronchiolar carcinoma, dosed 103 weeks, study length 105 weeks
  TD50: 44300 mg/kg/day
mouse, strain B6C3F1, males, in feed, site: all sites, lesion: lymphoma, histiocytic type, dosed 103 weeks, study length 105 weeks
  TD50: 15100 mg/kg/day
mouse, strain B6C3F1, males, in feed, site: all sites, lesion: lymphoma, dosed 103 weeks, study length 105 weeks
  TD50: 6540 mg/kg/day (inactive)
mouse, strain B6C3F1, males, in feed, site: all sites, lesion: malignant lymphoma, dosed 103 weeks, study length 105 weeks
  TD50: 12100 mg/kg/day
mouse, strain B6C3F1, males, in feed, site: any site (literature study), lesion: several types, types named in the paper, dosed 103 weeks, study length 105 weeks
  TD50: 3640 mg/kg/day
mouse, strain B6C3F1, males, in feed, site: lung, lesion: alveolar/bronchiolar adenoma + alveolar/bronchiolar carcinoma, dosed 103 weeks, study length 105 weeks
  TD50: 55600 mg/kg/day
rat, strain F344/DuCrj, males, in feed, site: esophagus, lesion: one or several types, types not named, dosed 52 weeks, study length 52 weeks
  carcinogen call: negative (inactive)
rat, strain F344/DuCrj, males, in feed, site: forestomach, lesion: one or several types, types not named, dosed 52 weeks, study length 52 weeks
  carcinogen call: negative (inactive)
rat, strain F344/DuCrj, males, in feed, site: liver, lesion: one or several types, types not named, dosed 52 weeks, study length 52 weeks
  carcinogen call: negative (inactive)
rat, strain Fischer 344, females, in feed, site: mammary gland, lesion: adenoma, dosed 103 weeks, study length 105 weeks
  TD50: 8080 mg/kg/day (inactive)
rat, strain Fischer 344, males, in feed, site: adrenal gland, lesion: pheochromocytoma + pheochromocytoma, malignant, dosed 103 weeks, study length 105 weeks
  TD50: 613 mg/kg/day
rat, strain Fischer 344, males, in feed, site: adrenal gland, lesion: pheochromocytoma, dosed 103 weeks, study length 105 weeks
  TD50: 613 mg/kg/day
rat, strain Fischer 344, males, in feed, site: pancreatic islets, lesion: islet-cell adenoma + islet-cell carcinoma, dosed 103 weeks, study length 105 weeks
  TD50: 840 mg/kg/day
rat, strain Fischer 344, males, in feed, site: pancreatic islets, lesion: islet-cell adenoma, dosed 103 weeks, study length 105 weeks
  TD50: 749 mg/kg/day (inactive)
rat, strain Fischer 344, males, in feed, site: preputial gland, lesion: adenocarcinoma + adenoma + carcinoma, dosed 103 weeks, study length 105 weeks
  TD50: 1040 mg/kg/day
rat, strain Fischer 344, males, in feed, site: thyroid gland, lesion: follicular-cell adenoma + follicular-cell carcinoma, dosed 103 weeks, study length 105 weeks
  TD50: 6870 mg/kg/day

## O=P(OC(CCl)CCl)(OC(CCl)CCl)OC(CCl)CCl
rat, strain Charles River CD (Sprague-Dawley), females, in feed, site: adrenal gland, lesion: cortical adenoma, dosed 104 weeks, study length 104 weeks
  TD50: 192 mg/kg/day
rat, strain Charles River CD (Sprague-Dawley), females, in feed, site: kidney, lesion: cortical adenoma, dosed 104 weeks, study length 104 weeks
  TD50: 68.6 mg/kg/day
rat, strain Charles River CD (Sprague-Dawley), females, in feed, site: liver, lesion: hepatocellular adenoma, dosed 104 weeks, study length 104 weeks
  TD50: 324 mg/kg/day
rat, strain Charles River CD (Sprague-Dawley), females, in feed, site: liver, lesion: hepatocellular carcinoma, dosed 104 weeks, study length 104 weeks
  TD50: 721 mg/kg/day
rat, strain Charles River CD (Sprague-Dawley), females, in feed, site: liver, lesion: several types, types named in the paper, dosed 104 weeks, study length 104 weeks
  TD50: 206 mg/kg/day
rat, strain Charles River CD (Sprague-Dawley), males, in feed, site: kidney, lesion: cortical adenoma, dosed 104 weeks, study length 104 weeks
  TD50: 53.1 mg/kg/day
rat, strain Charles River CD (Sprague-Dawley), males, in feed, site: liver, lesion: hepatocellular adenoma, dosed 104 weeks, study length 104 weeks
  TD50: 252 mg/kg/day
rat, strain Charles River CD (Sprague-Dawley), males, in feed, site: liver, lesion: hepatocellular carcinoma, dosed 104 weeks, study length 104 weeks
  TD50: 390 mg/kg/day
rat, strain Charles River CD (Sprague-Dawley), males, in feed, site: liver, lesion: several types, types named in the paper, dosed 104 weeks, study length 104 weeks
  TD50: 144 mg/kg/day
rat, strain Charles River CD (Sprague-Dawley), males, in feed, site: testis, lesion: interstitial-cell tumor, dosed 104 weeks, study length 104 weeks
  TD50: 35 mg/kg/day

## Cc1cc(Cc2ccc(N)c(C)c2)ccc1N
rat, strain Charles River CD (Sprague-Dawley), females, in feed, site: liver, lesion: cholangiocarcinoma, dosed 82 weeks, study length 82 weeks
  TD50: 96.3 mg/kg/day
rat, strain Charles River CD (Sprague-Dawley), females, in feed, site: liver, lesion: hepatocellular adenoma, dosed 82 weeks, study length 82 weeks
  TD50: 30.5 mg/kg/day
rat, strain Charles River CD (Sprague-Dawley), females, in feed, site: liver, lesion: hepatocellular carcinoma, dosed 82 weeks, study length 82 weeks
  TD50: 7.92 mg/kg/day
rat, strain Charles River CD (Sprague-Dawley), males, in feed, site: liver, lesion: hemangioma, dosed 68 weeks, study length 68 weeks
  TD50: 35.2 mg/kg/day
rat, strain Charles River CD (Sprague-Dawley), males, in feed, site: liver, lesion: hepatocellular adenoma, dosed 68 weeks, study length 68 weeks
  TD50: 17 mg/kg/day
rat, strain Charles River CD (Sprague-Dawley), males, in feed, site: liver, lesion: hepatocellular carcinoma, dosed 68 weeks, study length 68 weeks
  TD50: 12.4 mg/kg/day
rat, strain Charles River CD (Sprague-Dawley), males, in feed, site: mammary gland, lesion: fibroadenoma, dosed 68 weeks, study length 68 weeks
  TD50: 6.91 mg/kg/day
rat, strain Charles River CD (Sprague-Dawley), males, in feed, site: skin, lesion: fibroma, dosed 68 weeks, study length 68 weeks
  TD50: 8.19 mg/kg/day

## C=CC
mouse, strain B6C3F1, females, inhaled, site: any site (literature study), lesion: several types, types named in the paper, dosed 103 weeks, study length 105 weeks
  carcinogen call: negative (inactive)
mouse, strain B6C3F1, males, inhaled, site: any site (literature study), lesion: several types, types named in the paper, dosed 103 weeks, study length 105 weeks
  carcinogen call: negative (inactive)
mouse, strain Swiss, females, inhaled, site: any site (literature study), lesion: malignant tumor, dosed 78 weeks, study length 104 weeks
  TD50: 20100 mg/kg/day (inactive)
mouse, strain Swiss, females, inhaled, site: any site (literature study), lesion: several types, types named in the paper, dosed 78 weeks, study length 104 weeks
  TD50: 10100 mg/kg/day (inactive)
mouse, strain Swiss, females, inhaled, site: liver, lesion: hepatoma, dosed 78 weeks, study length 104 weeks
  TD50: 286000 mg/kg/day (inactive)
mouse, strain Swiss, females, inhaled, site: lung, lesion: adenocarcinoma, dosed 78 weeks, study length 104 weeks
  TD50: 1.2e+06 mg/kg/day (inactive)
mouse, strain Swiss, females, inhaled, site: lung, lesion: adenoma, dosed 78 weeks, study length 104 weeks
  TD50: 19800 mg/kg/day (inactive)
mouse, strain Swiss, males, inhaled, site: any site (literature study), lesion: malignant tumor, dosed 78 weeks, study length 104 weeks
  carcinogen call: negative (inactive)
mouse, strain Swiss, males, inhaled, site: any site (literature study), lesion: several types, types named in the paper, dosed 78 weeks, study length 104 weeks
  carcinogen call: negative (inactive)
mouse, strain Swiss, males, inhaled, site: liver, lesion: hepatoma, dosed 78 weeks, study length 104 weeks
  carcinogen call: negative (inactive)
mouse, strain Swiss, males, inhaled, site: lung, lesion: adenocarcinoma, dosed 78 weeks, study length 104 weeks
  carcinogen call: negative (inactive)
mouse, strain Swiss, males, inhaled, site: lung, lesion: adenoma, dosed 78 weeks, study length 104 weeks
  carcinogen call: negative (inactive)
rat, strain Fischer 344, females, inhaled, site: any site (literature study), lesion: several types, types named in the paper, dosed 103 weeks, study length 104 weeks
  carcinogen call: negative (inactive)
rat, strain Fischer 344, females, inhaled, site: liver, lesion: hepatocellular adenoma + hepatocellular carcinoma + neoplastic nodule, dosed 103 weeks, study length 104 weeks
  TD50: 20500 mg/kg/day
rat, strain Fischer 344, males, inhaled, site: any site (literature study), lesion: several types, types named in the paper, dosed 103 weeks, study length 104 weeks
  TD50: 15500 mg/kg/day (inactive)
rat, strain Fischer 344, males, inhaled, site: liver, lesion: hepatocellular adenoma + hepatocellular carcinoma + neoplastic nodule, dosed 103 weeks, study length 104 weeks
  TD50: 4610 mg/kg/day

## CNC(=O)ON=CC(C)(C)SC
mouse, strain B6C3F1, females, in feed, site: any site (literature study), lesion: several types, types named in the paper, dosed 103 weeks, study length 103 weeks
  carcinogen call: negative (inactive)
mouse, strain B6C3F1, females, in feed, site: liver, lesion: hepatocellular adenoma + hepatocellular carcinoma + neoplastic nodule, dosed 103 weeks, study length 103 weeks
  TD50: 52.7 mg/kg/day
mouse, strain B6C3F1, males, in feed, site: any site (literature study), lesion: several types, types named in the paper, dosed 103 weeks, study length 103 weeks
  TD50: 1.74 mg/kg/day (inactive)
mouse, strain B6C3F1, males, in feed, site: liver, lesion: hepatocellular adenoma + hepatocellular carcinoma + neoplastic nodule, dosed 103 weeks, study length 103 weeks
  TD50: 2.83 mg/kg/day
mouse, strain B6C3F1, males, in feed, site: lung, lesion: alveolar/bronchiolar adenoma + alveolar/bronchiolar carcinoma, dosed 103 weeks, study length 103 weeks
  TD50: 14.8 mg/kg/day
rat, strain Fischer 344, females, in feed, site: any site (literature study), lesion: several types, types named in the paper, dosed 103 weeks, study length 105 weeks
  carcinogen call: negative (inactive)
rat, strain Fischer 344, males, in feed, site: any site (literature study), lesion: several types, types named in the paper, dosed 103 weeks, study length 105 weeks
  TD50: 10.4 mg/kg/day (inactive)
rat, strain Fischer 344, males, in feed, site: liver, lesion: hepatocellular adenoma + hepatocellular carcinoma + neoplastic nodule, dosed 103 weeks, study length 105 weeks
  TD50: 1.33 mg/kg/day

## CCS(=O)(=O)c1ccc(S(N)(=O)=O)c2ccccc12
mouse, strain A x IF, females, in feed, site: lung, lesion: adenoma, dosed 100 weeks, study length 100 weeks
  TD50: 53.4 mg/kg/day
mouse, strain A x IF, females, in feed, site: urinary bladder, lesion: carcinoma, dosed 100 weeks, study length 100 weeks
  TD50: 34.2 mg/kg/day
mouse, strain IF x C57, females, in feed, site: urinary bladder, lesion: carcinoma, dosed 92 weeks, study length 92 weeks
  TD50: 15.3 mg/kg/day
